From patent US20230190950A1, “COMPOSITIONS AND METHODS FOR THE TREATMENT OF BACTERIAL INFECTIONS” (Cidara Therapeutics, Inc., priority 2017, published 2023)

How the values were obtained:
Conditions in all cases: 40% blood, 90 min
AB 5075 COL^S = experiment: MBC in human blood, AB 5075; assay type: cell-based, Acinetobacter baumannii
Procedure: (§1) Overnight stationary-phase cultures were centrifuged at 3,500×g for 10 min at room temperature and resuspended in 1×PBS to an optical density at 600 nm (OD600) of 0.4 (1×10^8 colony forming units [CFU]/mL) in RPMI with L-glutamine and phenol red (Life Technologies). […] MBC was defined as the minimum conjugate concentration required for complete bacterial clearance. An untreated growth control (40% blood, 0 μg/mL conjugate) was included in all assays.
(§2) Overnight stationary-phase cultures were centrifuged at 3,500×g for 10 min at room temperature and resuspended in 1×PBS to an optical density at 600 nm (OD600) of 0.4 (1×10^8 colony forming units [CFU]/ml) in RPMI with L-glutamine and phenol red (Life Technologies). Bacteria were diluted 1:25 in RPMI (4×10^6 CFU/ml) and 10 ul added to wells of a non-binding 96-well plate (Corning 3641) containing 80 ul of 50% hirudin anti-coagulated blood (complement active) in RPMI. […] MBC was defined as the minimum conjugate concentration required for bacterial clearance (Table 8A and Table 8B). An untreated growth control (40% blood, 0 ug/ml conjugate) was included in all assays as a growth comparator.

EC 25922 COL^S = experiment: MBC in human blood, EC 25922; assay type: cell-based, Escherichia coli
Procedure: as §1, §2

PA 01 COL^S = experiment: MBC in human blood, PA 01; assay type: cell-based, Pseudomonas aeruginosa
Procedure: as §1, §2

PA 7874 COL^R = experiment: MBC in human blood, PA 7874; assay type: cell-based, Pseudomonas aeruginosa
Procedure: as §1, §2

hIgG1 Fc: "h-IgG1 Fc (SEQ ID NO: 4)", "MW=54,731 Da"; the unconjugated Fc used as starting protein
>128 µg/mL: MBC in human hirudin-anticoagulated blood, A. baumannii AB5075 (AB 5075 COL^S) | MBC in human hirudin-anticoagulated blood, E. coli ATCC 25922 (EC 25922 COL^S) | MBC in human hirudin-anticoagulated blood, P. aeruginosa PAO1 (PA 01 COL^S) | MBC in human hirudin-anticoagulated blood, P. aeruginosa PA7874 (PA 7874 COL^R)
